In patent publication US9932333B2, “Benzothiazole compound and medicine containing same” (JAPAN SCIENCE AND TECHNOLOGY AGENCY, priority 2014, dated 2018):

Legend:
[1] = biological target: Aβ1-42 aggregated in advance (Homo sapiens, UniProt P05067); experiment: Aβ affinity (Kd association curve from fluorescence intensity); assay type: binding; details: aggregated Aβ1-42 0.5 μM, phosphate buffer pH 7.4, room temperature 1 hour
Description: For compound (1a), the excitation wavelength was set to 460 nm, and the fluorescence wavelength was set to 515 nm. A Kd association curve was obtained from the fluorescence intensity using KaleidaGraph 4.5 (Synergy Software, Reading, Pa.).

[2] = biological target: Aβ coexisting with angiotensin IV and methionine enkephalin (Homo sapiens, UniProt P05067); experiment: Oxygenation with Aβ coexisting with angiotensin IV and methionine enkephalin; assay type: biochemical
Description: (§1) Then, the reaction was monitored with a mass spectrometer (MALDI-TOF MS) or LC/MS (ESI-Q).

[3] = Oxidation reaction of benzoyl methionine in glycerol/water; details: aqueous solution containing glycerol, light irradiation
Description: (§2) Then, the reaction was monitored with LC/MS (ESI-Q).

[4] = biological target: T1, amylin (Homo sapiens, UniProt P10997); experiment: Oxidation reaction of amylin; assay type: biochemical
T1 construct: amylin, a hormone essential for glycemic control
T1 sequence (P10997 34-70 limits assumed): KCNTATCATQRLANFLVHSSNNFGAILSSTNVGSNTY
Description: as §1
(§3) The amino acid analysis of oxidized Aβ1-42 and oxidized amylin (carried out by Peptide Institute, Inc.) was conducted. The oxidized Aβ1-42 and the oxidized amylin were enzymatically digested with endopeptidase Lys-C and chymotrypsin, respectively, and the obtained digests were analyzed with a mass spectrometer (MALD-TOF MS) and LC/MS/MS (ESI-Q-TOF).

[5] = biological target: T2, angiotensin IV (Homo sapiens, UniProt P01019); experiment: Selectivity of oxygenation reaction, angiotensin IV (Example 4); assay type: biochemical; parameters: unit not given here; details: compound (1a) 20 mmol %, light 1 hour, 37° C.
Description: as §1

[6] = biological target: T3, Aβ1-42 (Homo sapiens, UniProt P05067); experiment: Oxidation reaction of Aβ1-42 under LED irradiation (Example 3); assay type: biochemical
Description: as §1, §3

[7] = biological target: T4, methionine enkephalin (Homo sapiens, UniProt P01210); experiment: Selectivity of oxygenation reaction, methionine enkephalin (Example 4); assay type: biochemical; parameters: unit not given here; details: compound (1a) 20 mmol %, light 1 hour, 37° C.
Description: as §1

[8] = biological target: T5, aggregated Aβ1-42 (Homo sapiens, UniProt P05067); experiment: Binding to aggregated Aβ1-42 by fluorescence assay (Example 5); details: 10 μM; Aβ1-42 incubated 0, 1, 3, 6 hours
Description: (2) Compound (1a) (10 μM) was added to each of solutions containing 4 types of aggregated Aβ1-42 (0.5 μM) prepared by the incubation of Aβ1-42 (20 μM) in a phosphate buffer solution (10 mM, pH 7.4) at 37° C. for 0, 1, 3, and 6 hours, respectively, followed by the measurement of the fluorescence intensity of compound (1a).

[9] = biological target: T6, Aβ1-42 oligomers (Homo sapiens, UniProt P05067); experiment: Binding to Aβ1-42 oligomer by fluorescence assay (Example 6); details: 10 μM; oligomers prepared at 0° C. and room temperature, 24 hours
Description: (2) Compound (1a) (10 μM) was added to each of solutions containing two types of Aβ1-42 oligomers (0.5 μM) prepared by the incubation of Aβ1-42 (20 μM) in a phosphate buffer solution (10 mM, pH 7.4) at 0° C. and room temperature, respectively, for 24 hours, followed by the measurement of the fluorescence intensity of compound (1a).

[10] = biological target: T3, Aβ1-42; experiment: Fluorescence spectra in the presence or absence of Aβ1-42; assay type: binding; details: Aβ1-42 20 μM, 37° C., 3 hours
[11] = biological target: T2, angiotensin IV; experiment: Oxidation reaction of angiotensin IV (Example 3); assay type: biochemical; details: light irradiation 1.5 hours, neutral buffer, 37° C.
Description: as §1

[12] = test system: nucleoside phosphorylase; experiment: Oxygenation ratio of aggregated to non-aggregated nucleoside phosphorylase (Example 8); assay type: biochemical; details: 4 μM, pH 7.4, room temperature, light 10 minutes
Description: (1) A phosphate buffer solution (10 mM, pH 7.4) containing nucleoside phosphorylase (0.1 mg/mL) was incubated at 60° C. The degree of thermal aggregation was monitored using a fluorescence assay kit (Protein Stability and Aggregation Assay Kit (ProFoldin, Hudson, Mo., USA)).
(§4) The reaction was monitored with a mass spectrometer (MALDI-TOF MS).
(§5) Each oxygenation ratio was calculated according to (Intensity ratio of oxygenation of aggregated Aβ1-42)/(Intensity ratio of oxygenation of non-aggregated Aβ1-42) and (Intensity ratio of oxygenation of aggregated nucleoside phosphorylase)/(Intensity ratio of oxygenation of non-aggregated nucleoside phosphorylase).

[13] = biological target: somatostatin (Homo sapiens, UniProt P61278); experiment: Selectivity of oxygenation reaction, somatostatin (Example 4); assay type: biochemical; parameters: unit not given here; details: compound (1a) 20 mmol %, light 1 hour, 37° C.
Description: as §1

[14] = Singlet oxygen production in glycerol/water (furfuryl alcohol decrease); details: aqueous solution containing glycerol, light irradiation
Description: as §2

[15] = biological target: T7, insulin (Homo sapiens, UniProt P01308); experiment: Oxygenation reaction of insulin; assay type: biochemical
T7 construct: prepared by the incubation of insulin (400 μM) in a 25 mM hydrochloric acid solution
Description: (§6) Then, the reaction was monitored with a mass spectrometer (MALDI-TOF MS).

[16] = biological target: T6, Aβ1-42 oligomers; experiment: Oxygenation of Aβ1-42 oligomer (Example 6); assay type: biochemical; details: 4 μM; light 10 minutes, room temperature
Description: (3) Compound (1a) (4 μM) was added to each of solutions containing two types of Aβ1-42 oligomers (0.5 μM) prepared by the incubation of Aβ1-42 (20 μM) in a phosphate buffer solution (10 mM, pH 7.4) at 0° C. and room temperature, respectively, for 24 hours, and the mixture was incubated at room temperature for 10 minutes under irradiation with LED (wavelength: 500 nm). Then, the reaction was monitored with a mass spectrometer (MALDI-TOF MS). The intensity ratio of oxygenation (%) was calculated according to (Total intensity of oxygen adducts)/((Intensity of non-oxygen adduct (native))+(Total intensity of oxygen adducts)).

[17] = biological target: T5, aggregated Aβ1-42; experiment: Increase of the intensity ratio of oxygenation of aggregated Aβ1-42 (Example 5); assay type: biochemical; details: Aβ1-42 incubated 0, 1, 3, 6 hours; light 10 minutes, room temperature
Description: as §6
Increase of the intensity ratio of oxygenation (%) was calculated according to (Intensity ratio of oxygenation of aggregated Aβ1-42 (incubated at 37° C. for the predetermined time))−(Intensity ratio of oxygenation of aggregated Aβ1-42 (incubated at 37° C. for 0 hours)).
The intensity ratio of oxygenation (%) was calculated according to (Total intensity of oxygen adducts)/((Intensity of non-oxygen adduct (native))+(Total intensity of oxygen adducts)).

[18] = Absorption spectra; assay type: physicochemical
[19] = biological target: T4, methionine enkephalin; experiment: Oxidation reaction of methionine enkephalin (Example 3); assay type: biochemical; details: light irradiation 1.5 hours, neutral buffer, 37° C.
Description: as §1

[20] = biological target: α-synuclein (Homo sapiens, UniProt P37840); experiment: Oxygenation reaction of α-synuclein; assay type: biochemical
Description: as §4

[21] = biological target: T3, Aβ1-42; experiment: Oxygenation ratio of aggregated to non-aggregated Aβ1-42 (Example 8); assay type: biochemical; details: 20.0 mmol %, pH 7.4, room temperature, light 10 minutes
Description: as §6, §5

[22] = biological target: T6, Aβ1-42 oligomers; experiment: Aggregability of oxygenized Aβ1-42 oligomer (Nile Red, atomic force microscopy); assay type: biochemical; details: compared with native
Description: (4) Compound (1a) (4 μM) was added to each of solutions containing two types of Aβ1-42 oligomers (0.5 μM) prepared by the incubation of Aβ1-42 (20 μM) in a phosphate buffer solution (10 mM, pH 7.4) at 0° C. and room temperature, respectively, for 24 hours, and the mixture was incubated at room temperature for 1 hour under irradiation with LED (wavelength: 500 nm). Then, each solution was incubated at 37° C., and Nile Red was added thereto, followed by the measurement of its fluorescence intensity. The sample incubated for 6 hours was also analyzed for its shape by atomic force microscopy. A non-oxygenized Aβ1-42 oligomer (native) was prepared without light irradiation.

[23] = biological target: transthyretin (Homo sapiens, UniProt P02766); experiment: Oxygenation reaction of transthyretin; assay type: biochemical
Description: as §4

[24] = biological target: T8, desacyl ghrelin (Homo sapiens, UniProt Q9UBU3); experiment: Selectivity of oxygenation reaction, desacyl ghrelin (Example 4); assay type: biochemical; parameters: unit not given here; details: compound (1a) 20 mmol %, light 1 hour, 37° C.
T8 sequence (Q9UBU3 24-51 limits assumed): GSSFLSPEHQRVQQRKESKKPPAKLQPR
Description: as §1

[25] = biological target: β2-microglobulin (Homo sapiens, UniProt P61769); experiment: Oxygenation reaction of β2-microglobulin; assay type: biochemical
Description: as §4

[26] = Fluorescence in glycerol/water mixed solvent; assay type: physicochemical; details: increasing glycerol concentration
[27] = 20 μM, light 500 nm, 37° C., 30 minutes

β2-microglobulin, sequence (P61769 21-119, species assumed): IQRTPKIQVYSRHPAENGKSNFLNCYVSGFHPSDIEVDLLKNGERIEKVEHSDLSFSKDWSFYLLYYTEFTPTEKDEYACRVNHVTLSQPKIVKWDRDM
T7 sequence (P01308 25-54 limits assumed, species assumed): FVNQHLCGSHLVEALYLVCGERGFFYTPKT
T7 sequence (P01308 90-110 limits assumed, species assumed): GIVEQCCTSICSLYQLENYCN
T3 sequence (P05067 672-713 limits assumed): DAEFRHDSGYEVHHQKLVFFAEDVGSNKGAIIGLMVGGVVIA
T6 sequence (P05067 672-713 limits assumed): as above
T5 sequence (P05067 672-713 limits assumed): as above
Aβ1-42 aggregated in advance, sequence (P05067 672-713 limits assumed): as above
Aβ coexisting with angiotensin IV and methionine enkephalin, sequence (P05067 672-713): as the sequence (P05067 672-713 limits assumed) above

## C[n+]1c(-c2cc3c4c(c2)CCCN4CCC3)sc2cc(Br)ccc21 [compound (1a)]
[1]
  Kd: 1.1 µM

## C[n+]1c(-c2cc3c4c(c2)CCCN4CCC3)sc2cc(Br)ccc21 [1a]
[2]
  selectivity of oxygenation with coexisting substrates: highly selective oxygenation of Aβ was observed
[3]
  oxidation of benzoyl methionine: oxidized in a glycerol concentration-dependent manner
[4]
  selectivity for aggregated over monomeric amylin: selectively reacts with aggregated amylin without acting on monomeric amylin
[4]; 100 mmol %, light 500 nm, pH 7.4, 37° C.
  oxygenation of amylin: time-dependent oxygenation at His-18 residue was observed
[4]; pre-incubation 0 h
  oxygenation of amylin in a monomeric state: Only a trace amount of an oxygenated form was detected
[4]; pre-incubation 1 hour and 2 hours
  oxygenation of amylin aggregated in advance: the ratio of oxygenized amylin was elevated
[5]
  generation of an oxygenated form of angiotensin IV: ≤ 2
[6]; 100 mmol %, light 500 nm, pH 7.4, 37° C., compared with thioflavin T
  oxidation efficiency of Aβ: remarkably high as compared with thioflavin T
[6]; amino acid analysis and LC/MS/MS analysis
  oxygenation site in Aβ1-42: remarkably at His-13 and His-14 residues, and oxygenation also proceeds slightly at Met-35 residue
[7]
  generation of an oxygenated form of methionine enkephalin: ≤ 2
[8]
  binding to aggregated Aβ1-42 (fluorescence intensity): bind to the cross-β-sheet structure of aggregated Aβ1-42
[9]
  binding to Aβ1-42 oligomer (fluorescence): binds to the Aβ1-42 oligomer
[10]
  fluorescence in the presence of Aβ compared with absence of Aβ: remarkably high as compared with that in the absence of Aβ
[11]
  oxygenation of angiotensin IV: ≤ 5%
[12]
  oxygenation ratio (aggregated / non-aggregated nucleoside phosphorylase): approximately 1.2
[13]
  generation of an oxygenated form of somatostatin: ≤ 2
[14]
  production of singlet oxygen (decrease in furfuryl alcohol): production of singlet oxygen, with increase in the concentration of glycerol was observed
[15]; [27]
  progression of oxygenation of aggregated insulin: observed
  progression of oxygenation of non-aggregated insulin: not observed
[15]; without light irradiation
  oxygenation of aggregated insulin without light irradiation: not observed
[16]
  oxygenation of Aβ1-42 oligomers: able to catalyze the oxygenation of both of the Aβ1-42 oligomers
[17]
  increase of the intensity ratio of oxygenation: increase of the intensity ratio of oxygenation was observed with increase in the fluorescence intensity of thioflavin T
[18]; 20 μM, phosphate buffer pH 7.4
  maximum absorption wavelength: 456 nm
[18]; compared with thioflavin T
  shift of maximum absorption wavelength to longer wavelength than thioflavin T: approximately 50 nm
[19]
  oxygenation of methionine enkephalin: ≤ 5%
[20]; [27]
  oxygenation of aggregated α-synuclein: observed
  progression of oxygenation of non-aggregated α-synuclein: not observed
[20]; without light irradiation
  oxygenation of aggregated α-synuclein without light irradiation: not observed
[21]
  oxygenation ratio (aggregated Aβ1-42 / non-aggregated Aβ1-42): approximately 4.2
[22]; 4 μM, light 1 hour, then 37° C.
  increase in cross-β structure of Aβ1-42 oligomer (Nile Red fluorescence): suppress increase in the cross-β structure of the Aβ1-42 oligomer
[22]; incubated for 6 hours
  fibril formation of Aβ1-42 oligomer (atomic force microscopy): similarly suppressed
[23]; [27]
  oxygenation of aggregated transthyretin: observed
  progression of oxygenation of non-aggregated transthyretin: not observed
[23]; without light irradiation
  oxygenation of aggregated transthyretin without light irradiation: not observed
[24]
  generation of an oxygenated form of desacyl ghrelin: ≤ 2
[25]; [27]
  oxygenation of aggregated β2-microglobulin: observed
  progression of oxygenation of non-aggregated β2-microglobulin: not observed
[25]; without light irradiation
  oxygenation of aggregated β2-microglobulin without light irradiation: not observed
[26]
  fluorescence intensity in glycerol/water mixed solvent: increased with increase in the concentration of highly viscous glycerol
